Laboratory results reported in paper PMC8194028, “Engineering and characterization of human β-defensin-3 and its analogues and microcin J25 peptides against Mannheimia haemolytica and bovine neutrophils” (Veterinary Research, 2021).
Like-named read-outs stand apart in the source and are kept apart here. Positions of bridges follow the written chain, without caps; N, C: chain ends. No end group written: not given here.

What was measured:
M. haemolytica = test: Inhibition of visible growth (MIC assay, optical density method); format: cell-based, Mannheimia haemolytica; settings: 10 000–25 000 bacteria/well; compared with control wells
Method: (§1) Wild-type HBD3, its analogues, and MccJ25 were tested against M. haemolytica-A1 using optical density method and colony count assay. Briefly, an aliquot (5 µL) from bacteria suspension stored at −80 °C was put in 5 mL BHI broth at 37 °C for 18 h. An aliquot (10 µL) from this overnight culture was added to fresh BHI broth and incubated at 37 °C for a further 5 h to obtain mid-log phase bacteria. The culture was then centrifuged for 10 min at 800 g at 4 °C. The supernatant was discarded and the bacterial pellet was resuspended in cold, sterile sodium phosphate buffer (SPB) and washed again at 800g for 10 min at 4 °C. The pellet was resuspended in 5 mL SPB. To calculate the number of CFU/mL in the 5 h culture, six successive tenfold dilutions were made. From the last dilution 100 µL was plated in duplicate on petri dishes containing BHI agar and incubated for 24 h. After 24 h the colonies were counted in the two petri dishes and then averaged. Total number of colonies was the average number of colonies multiplied by the dilution factor.
All assays were carried out in sterile 96-well polypropylene flat-bottomed plates using a broth microdilution method. Two-fold serial dilutions of peptide were made in SPB, and 50 µL of each concentration of peptide was added to the wells of the assay plate. […]

M. haemolytica-A1 = format: cell-based, Mannheimia haemolytica; settings: for No. of CFU: final inoculum 5 × 10^5 cfu/mL, one of three experiments
Method: as §1
All assays were carried out in sterile 96-well polypropylene flat-bottomed plates using a broth microdilution method. Two-fold serial dilutions of peptide were made in SPB, and 50 µL of each concentration of peptide was added to the wells of the assay plate. […] Positive control wells contained 50 µL of the bacteria with 50 µL of 64 µg/mL ampicillin and negative control wells contained 50 µL of SPB and 50 µL bacterial suspension. Sterility control well contained 100 µL BHI broth to test and ensure that broth was not contaminated.
The plates were sealed with aluminum foil and were incubated at 37 °C for 2 h then 50 µL of the contents of the well were pipetted on BHI agar plates and incubated for 24 h. The bactericidal activity was expressed as the MBC which is the concentration at which 99.9% of the colonies are killed and the Lethal dose 50 (LD50) at which 50% or more bacteria are killed. All experiments were run in triplicates.
Peptides HBD3, its analogues and Mccj25 were assessed for Minimum bactericidal concentration (MBC). […] All the peptides have shown intermediate to potent killing activity towards M. haemolytica (Figures 2, 3). […] However, some published studies have taken final inoculum in the range of 10^4–10^5 cfu/mL [28].

bovine neutrophils [1] = test: Chemotaxis assay, 48-well Boyden chamber; format: cell-based, cattle; settings: peptide 50.0 μg/mL in lower well; 20 min at 37 °C; three independent experiments; ANOVA with Dunnett, P < 0.05
Method: (§2) Neutrophils were isolated from cattle using established methods and approved by the University of Saskatchewan’s Committee on Animal Care. For each individual animal, blood was pooled into 50 mL tubes and diluted with an equal volume of PBS then 12.5 mL of the diluted blood was layered over 10 mL of Ficoll Paque PLUS (Sigma-Aldrich, St. Louis, USA) while taking care to preserve the interface between the two liquids. Following centrifugation at 400 g for 30 min at 20 °C with the brake turned off, the lymphocyte layer was discarded along with Ficoll and plasma. The pellet was washed in 20 mL PBS with centrifugation at 500 g with low brake for 10 min. The supernatant was discarded and the pellet was suspended in equal volume of sterile water and gently mixed for 20 s followed by addition of equal volume of 1.8% NaCl to restore tonicity. The mixture was centrifuged at 500 g for 10 min and followed by another washing and centrifugation at 4 °C. The resulting neutrophil pellet was resuspended in PBS. Bovine neutrophils, collected in the above manner had more than 92% purity, and their viability was greater than 95% based on Trypan blue exclusion assay. Therefore, we use the term neutrophils in the manuscript.
We used fMLP ([…]) as the chemoattractant. […] The cells within the filter pores were then counted in five random fields under light microscope at 40×. […]

bovine neutrophils [2] = test: Migration inhibition assay (neutrophil migration towards fMLP); format: cell-based, cattle; settings: neutrophils with 50.0 μg/mL peptide in upper well; fMLP 114 nM in lower well; 20 min at 37 °C; three independent experiments
Method: as §2
Since peptides can be immunomodulatory, migration inhibition was carried out to determine if the peptides inhibit neutrophil migration. […]

[3] = system: 28 species and 55 strains of Gram-positive cocci and Gram-negative fermentative and non-fermentative rods; design: method as in PMID 12709350; settings: final bacterial inoculum 10^4 to 10^5/mL; cited from earlier work

CC1(C)S[C@@H]2[C@H](NC(=O)[C@H](N)c3ccccc3)C(=O)N2[C@H]1C(=O)O [Ampicillin]
Inhibition of visible growth of M. haemolytica (M. haemolytica): no growth

GIINTLQKYYCRVRGGRCAVLSCLPKEEQIGKCSTRGRKCCRRKK (disulfide 11-40, 18-33, 23-41 (inferred)) [HBD3, Human β-Defensin 3, reference compound]
LD50 (M. haemolytica-A1; 2 h): 6.3 µg/mL
MBC (M. haemolytica-A1; 2 h): 50.0 µg/mL
Sensitivity of M. haemolytica to the peptide (class by MBC) (M. haemolytica-A1; MBC assay, classification of ref 28): intermediately sensitive (as intermediately sensitive if MBC levels were 10–100 μg/mL)
No. of CFU (M. haemolytica-A1; peptide 0.8 μg/mL, well row A (duplicate 1)): >400 CFU
No. of CFU (M. haemolytica-A1; peptide 0.8 μg/mL, well row B (duplicate 2)): >400 CFU
No. of CFU (M. haemolytica-A1; peptide 1.6 μg/mL, well row A (duplicate 1)): >400 CFU
No. of CFU (M. haemolytica-A1; peptide 1.6 μg/mL, well row B (duplicate 2)): >400 CFU
No. of CFU (M. haemolytica-A1; peptide 3.1 μg/mL, well row A (duplicate 1)): >400 CFU
No. of CFU (M. haemolytica-A1; peptide 3.1 μg/mL, well row B (duplicate 2)): >400 CFU
No. of CFU (M. haemolytica-A1; peptide 6.3 μg/mL, well row A (duplicate 1)): 210 CFU
No. of CFU (M. haemolytica-A1; peptide 6.3 μg/mL, well row B (duplicate 2)): 390 CFU
No. of CFU (M. haemolytica-A1; peptide 12.5 μg/mL, well row A (duplicate 1)): 42 CFU
No. of CFU (M. haemolytica-A1; peptide 12.5 μg/mL, well row B (duplicate 2)): 101 CFU
No. of CFU (M. haemolytica-A1; peptide 25.0 μg/mL, well row A (duplicate 1)): 31 CFU
No. of CFU (M. haemolytica-A1; peptide 25.0 μg/mL, well row B (duplicate 2)): 9 CFU
No. of CFU (M. haemolytica-A1; peptide 50.0 μg/mL, well row A (duplicate 1)): 0 CFU
No. of CFU (M. haemolytica-A1; peptide 50.0 μg/mL, well row B (duplicate 2)): 0 CFU
No. of CFU (M. haemolytica-A1; peptide 100.0 μg/mL, well row A (duplicate 1), 2 h 37 °C, 50 μL plated, 24 h): 0 CFU
No. of CFU (M. haemolytica-A1; peptide 100.0 μg/mL, well row B (duplicate 2)): 0 CFU
Chemotaxis of bovine neutrophils towards peptide (migrated neutrophils vs PBS) (bovine neutrophils [1]): chemotactic
Effect of peptide on neutrophil migration towards fMLP (bovine neutrophils [2]): none of the peptides inhibited migration
MBC, three strains out of 55 tested (intermediate susceptibility) [3]: 50.0 µg/mL
